For test [1], the system named is TNF-α release from human peripheral blood mononuclear cells (PBMC). Put plainly: TNF-α Release in LPS stimulated PBMC. Particulars: 30 minutes pre-incubation, stimulated 18 hours with lipopolysaccharide, TNF-α in supernatant by enzyme immunoassay. The test is classed as cell-based. On the procedure:
Human peripheral blood mononuclear cells (PBMC) were isolated from buffy coats. The blood is mixed with saline at a ratio of 1:1, and the PBMC were isolated using Lymphoprep Tubes™ (Nycomed, Norway). The PBMC were suspended in RPMI1640 with 2% foetal calf serum (FCS), pen/strep and 2 mM L-glutamine at a concentration of […]. The cells were pre-incubated for 30 minutes with the test compounds in 96 well tissue culture plates and stimulated for 18 hours with lipopolysaccharide […] (Sigma). The level of TNF-α was measured in the culture supernatant by enzyme immunoassays using primary and secondary biotinylated antibodies from R&D systems. Results are expressed as IC50 values calculated from inhibition curves using as positive controls the secretion in LPS stimulated wells and as negative controls the secretion in unstimulated cells.

Test [2] deals with Human recombinant PDE4 (Genbank accession no NM—006203) (Homo sapiens, UniProt Q08499). Put plainly: PDE4 Assay (SPA, cleavage of cAMP). The test is classed as biochemical. On the procedure: Human recombinant PDE4 (Genbank accession no NM_006203) was incubated for 1 hour, with the test compound at concentrations up to 10 μM, with cAMP (1×10^-5M), and with a low amount (0.021 MBq) of radioactively labelled cAMP. At the end of the incubation, the cleavage of the substrate was evaluated by the binding of the AMP product to SPA beads, which generate […] when bound to the radioactive tracer. The AMP product inhibited the binding of the radioactive tracer to the beads, and the luminescent signal was competed. The results were calculated as the molar concentrations resulting in 50% inhibition of the substrate cleavage compared to controls samples, and are expressed as IC50 (M).
Human recombinant PDE4 (Genbank accession no NM—006203), sequence (Q08499 1-673 isoform Q08499-2): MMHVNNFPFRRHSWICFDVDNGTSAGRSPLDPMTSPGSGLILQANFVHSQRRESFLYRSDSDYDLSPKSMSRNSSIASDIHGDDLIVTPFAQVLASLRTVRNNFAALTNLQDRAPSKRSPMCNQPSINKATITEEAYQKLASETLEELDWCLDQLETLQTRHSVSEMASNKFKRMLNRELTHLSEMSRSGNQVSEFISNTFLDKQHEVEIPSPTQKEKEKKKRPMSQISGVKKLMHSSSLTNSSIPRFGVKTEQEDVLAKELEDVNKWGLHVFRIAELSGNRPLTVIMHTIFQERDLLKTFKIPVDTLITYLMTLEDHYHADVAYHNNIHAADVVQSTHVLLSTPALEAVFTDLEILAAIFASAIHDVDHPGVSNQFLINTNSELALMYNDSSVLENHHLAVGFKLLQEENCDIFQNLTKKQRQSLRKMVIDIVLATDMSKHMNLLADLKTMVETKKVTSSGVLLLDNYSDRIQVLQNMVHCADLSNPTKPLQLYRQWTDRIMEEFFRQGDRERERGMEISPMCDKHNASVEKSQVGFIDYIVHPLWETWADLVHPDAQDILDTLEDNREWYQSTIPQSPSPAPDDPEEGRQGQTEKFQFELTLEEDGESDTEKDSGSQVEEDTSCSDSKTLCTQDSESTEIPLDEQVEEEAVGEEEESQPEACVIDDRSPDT

Where [3] appears, read: human recombinant PDE4, 1 hour incubation, cAMP 1×10^-5M, test compound up to 10 μM, read-out: IC50 (PDE4).

Read-outs that look alike come from different tables or passages of the source.

Data on 26 compounds can be found in US8338431B2, “Phosphodiesterase inhibitors” (Leo Pharma A/S, priority 2007, dated 2012).

A word on the IC50: it is the concentration needed to halve the response being measured.

Regarding `COc1ccc(C(=O)Nc2c(Cl)cncc2Cl)c2c1OC1(CCOCC1)O2` [Compound 102, N-(3,5-Dichloropyridine-4-yl)-7-methoxy-2′,3′,5′,6′-tetrahydro-spiro[1,3-benzodioxole-2,4′-(4H)-pyran]-4-carboxamide], the IC50 in test [1] was 88 nM; in test [2] (setting [3]), 41 nM.

For the compound `COc1ccc(C(=O)Cc2c(Cl)cncc2Cl)c2c1OC1(CCNCC1)O2` [Compound 105, 2-(3,5-Dichloropyridine-4-yl)-1-(7-methoxy-spiro[1,3-benzodioxole-2,4′-piperidine]-4-yl)ethanone], the results for the IC50 in test [1] and in test [2] were 800 nM and 310 nM, respectively.

Take `COc1ccc(C(=O)Cc2c(Cl)cncc2Cl)c2c1OC1(CCOCC1)O2` [Compound 101, 2-(3,5-Dichloropyridine-4-yl)-1-(7-methoxy-2′,3′,5′,6′-tetrahydro-spiro[1,3-benzodioxole-2,4′-(4H)-pyran]-4-yl)ethanone]: the half-inhibitory concentration (IC50) in test [1] came to 28 nM; in test [2] (setting [3]), 26 nM.

Take `COc1ccc(C(=O)Cc2c(Cl)cncc2Cl)c2c1OCC1(COC1)CO2` [Compound 121, 2-(3,5-Dichloropyridin-4-yl)-1-{9-methoxy-spiro[2H-1,5-benzodioxepin-3(4H),3′-oxetane]-6-yl}ethanone]: the IC50 was found to be 64 nM in test [1] and 52 nM in test [2] (setting [3]).

`COc1ccc(C(=O)Cc2cnccn2)c2c1OC1(CCSCC1)O2` [Compound 116, 2-(-pyrazin-2-yl)-1-(7-methoxy-2′,3′,5′,6′-tetrahydro-spiro[1,3-benzodioxole-2,4′-(4H)-thiopyran]-4-yl)ethanone]: the IC50 in test [1] was determined as 2940 nM; in test [2] (setting [3]), 1290 nM.

Take `COc1ccc(C(=O)Cc2c(Cl)cncc2Cl)c2c1OCC1(CO2)CSCSC1` [Compound 132, 2-(3,5-Dichloropyridin-4-yl)-1-{9-methoxy-spiro[2H-1,5-benzodioxepin-3(4H),5′-[1,3]dithiane]-6-yl}ethanone]: the 50% inhibitory concentration (IC50) was 29 nM in test [1] and 26 nM in test [2] (setting [3]).

As to `COC(=O)N1CCC2(CC1)Oc1c(OC)ccc(C(=O)Cc3c(Cl)cncc3Cl)c1O2` [Compound 106, 2-(3,5-Dichloropyridine-4-yl)-1-(7-methoxy-1′-[methoxycarbonyl]-spiro[1,3-benzodioxole-2,4′-piperidine]-4-yl)ethanone], the half-maximal inhibitory concentration (IC50) in test [1] was determined as 158 nM; in test [2] it was 127 nM.

As to `COc1ccc(C(=O)Cc2c(Cl)cncc2Cl)c2c1OC1(CC[S+]([O-])CC1)O2` (stereo not shown) [Compound 111, 2-(3,5-Dichloropyridine-4-yl)-1-(7-methoxy-2′,3′,5′,6′-tetrahydro-spiro[1,3-benzodioxole-2,4′-(4H)-thiopyran 1′-oxide]-4-yl)ethanone], the IC50 worked out at 19 nM in test [1] and 18 nM in test [2] (setting [3]).

With `COc1ccc(C(=O)Cc2c(Cl)c[n+]([O-])cc2Cl)c2c1OCC1(COCOC1)CO2` [Compound 131, 2-(3,5-Dichloro-1-oxido-pyridine-4-yl)-1-{9-methoxy-spiro[2H-1,5-benzodioxepin-3(4H),5′-[1,3]dioxane]-6-yl}ethanone], the figures for the IC50 in test [1] and in test [2] (setting [3]) were 16 nM and 43 nM, respectively.

Regarding `COc1ccc(C(=O)Cc2ccncc2Br)c2c1OC1(CCSCC1)O2` [Compound 114, 2-(3-bromopyridine-4-yl)-1-(7-methoxy-2′,3′,5′,6′-tetrahydro-spiro[1,3-benzodioxole-2,4′-(4H)-thiopyran]-4-yl)ethanone], the IC50 came out at 95 nM in test [1] and 45 nM in test [2] (setting [3]).

On to `COc1ccc(C(=O)Cc2c(Cl)cncc2Cl)c2c1OCC1(CCOCC1)CO2` [Compound 127, 2-(3,5-Dichloropyridin-4-yl)-1-{9-methoxy-spiro[2H-1,5-benzodioxepin-3(4H),4′-tetrahydropyran]-6-yl}ethanone], for which the half-maximal inhibitory concentration (IC50) in test [1] was 27 nM; in test [2] (setting [3]), 22 nM.

With `COc1ccc(C(=O)Cc2c(Cl)cncc2Cl)c2c1OCC1(CO2)CS(=O)(=O)C1` [Compound 124, 2-(3,5-Dichloropyridin-4-yl)-1-{9-methoxy-spiro[2H-1,5-benzodioxepin-3(4H),3′-thietane-1′,1′-dioxide]-6-yl}ethanone], the half-inhibitory concentration (IC50) in test [1] was determined as 135 nM; in test [2] (setting [3]) it was 104 nM.

In the case of `COc1ccc(C(=O)Cc2c(Cl)cncc2Cl)c2c1OC1(CCN(C(C)=O)CC1)O2` [Compound 108, 2-(3,5-Dichloropyridine-4-yl)-1-(7-methoxy-1′-acetyl-spiro[1,3-benzodioxole-2,4′-piperidine]-4-yl)ethanone], the IC50 in test [1] amounted to 167 nM; in test [2], 220 nM.

In the case of `COc1ccc(C(=O)Cc2c(Cl)c[n+]([O-])cc2Cl)c2c1OCC1(COC1)CO2` [Compound 122, 2-(3,5-Dichloro-1-oxido-pyridin-4-yl)-1-{9-methoxy-spiro[2H-1,5-benzodioxepin-3(4H),3′-oxetane]-6-yl}ethanone], the IC50 was 20 nM in test [1] and 50 nM in test [2] (setting [3]).

Consider `COc1ccc(C(=O)Cc2nccnc2Br)c2c1OC1(CCSCC1)O2` [Compound 115], for which the IC50 stood at 471 nM in test [1] and 1410 nM in test [2] (setting [3]).

As to `COc1ccc(C(=O)Cc2ccnc3ccccc23)c2c1OC1(CCSCC1)O2` [Compound 118, 2-(quinolin-4-yl-)-1-(7-methoxy-2′,3′,5′,6′-tetrahydro-spiro[1,3-benzo-dioxole-2,4′-(4H)-thiopyran]-4-yl)ethanone], the IC50 in test [1] turned out to be 5520 nM; in test [2] (setting [3]), 1800 nM.

For `COc1ccc(C(=O)Cc2c(Cl)cncc2Cl)c2c1OCC1(COCOC1)CO2` [Compound 130, 2-(3,5-Dichloropyridin-4-yl)-1-{9-methoxy-spiro[2H-1,5-benzodioxepin-3(4H),5′-[1,3]dioxane]-6-yl}ethanone], the IC50 amounted to 50 nM in test [1] and 40 nM in test [2] (setting [3]).

Take `COc1ccc(C(=O)Cc2c(Cl)cccc2Cl)c2c1OC1(CCSCC1)O2` [Compound 119, 2-(2,6-Dichloro-phenyl)-1-(7-methoxy-2′,3′,5′,6′-tetrahydro-spiro[1,3-benzo-dioxole-2,4′-(4H)-thiopyran]-4-yl)ethanone]: the values for the IC50 in test [1] and in test [2] (setting [3]) were 508 nM and 71 nM, respectively.

Turning to `COc1ccc(C(=O)Cc2c(Cl)cncc2Cl)c2c1OCC1(CO2)CSC1` [Compound 123, 2-(3,5-Dichloropyridin-4-yl)-1-{9-methoxy-spiro[2H-1,5-benzodioxepin-3(4H),3′-thietane]-6-yl}ethanone], the IC50 in test [1] worked out at 35 nM; in test [2] (setting [3]), 17 nM.

For the compound `COc1ccc(C(=O)Cc2ccncc2)c2c1OC1(CCSCC1)O2` [Compound 117, 2-(-pyridin-4-yl-)-1-(7-methoxy-2′,3′,5′,6′-tetrahydro-spiro[1,3-benzo-dioxole-2,4′-(4H)-thiopyran]-4-yl)ethanone], the concentration for half-maximal inhibition (IC50) worked out at 286 nM in test [1] and 207 nM in test [2] (setting [3]).

As for `COc1ccc(C(=O)Cc2c(Cl)c[n+]([O-])cc2Cl)c2c1OCC1(CO2)CS(=O)(=O)C1` [Compound 125, 2-(3,5-Dichloropyridin-1-oxido-4-yl)-1-{9-methoxy-spiro[2H-1,5-benzodioxepin-3(4H),3′-thietane-1′,1′-dioxide]-6-yl}ethanone], the IC50 in test [1] came out at 135 nM; in test [2] (setting [3]) it was 200 nM.

Take `COc1ccc(C(=O)Cc2c(Cl)cncc2Cl)c2c1OCC1(CO2)OCCO1` [Compound 126, 2-(3,5-Dichloropyridin-4-yl)-1-{9-methoxy-spiro[2H-1,5-benzodioxepin-3(4H),2′-(1,3-dioxolane)]-6-yl}ethanone]: the IC50 worked out at 111 nM in test [1] and 67 nM in test [2] (setting [3]).

`COc1ccc(C(=O)Cc2ccccc2Cl)c2c1OC1(CCSCC1)O2` [Compound 120, 2-(2-chloro-phenyl)-1-(7-methoxy-2′,3′,5′,6′-tetrahydro-spiro[1,3-benzo-dioxole-2,4′-(4H)-thiopyran]-4-yl)ethanone]: the values for the IC50 in test [1] and in test [2] (setting [3]) were 1250 nM and 310 nM, respectively.

Take `COc1ccc(C(=O)Cc2c(Cl)c[n+]([O-])cc2Cl)c2c1OCC1(CCOCC1)CO2` [Compound 128, 2-(3,5-Dichloro-1-oxido-pyridin-4-yl)-1-{9-methoxy-spiro[2H-1,5-benzodioxepin-3(4H),4′-tetrahydropyran]-6-yl}ethanone]: the results for the concentration for half-maximal inhibition (IC50) in test [1] and in test [2] (setting [3]) were 9 nM and 11 nM, respectively.

Consider `COc1ccc(C(=O)Cc2c(Cl)cncc2Cl)c2c1OC1(CCSC1)O2` (stereo not shown) [Compound 104, 2-(3,5-Dichloropyridine-4-yl)-1-(7-methoxy-4′,5′-dihydro-spiro[1,3-benzo-dioxole-2,3′-(2H)-thiophen]-4-yl)ethanone], for which the IC50 worked out at 44 nM in test [1] and 10 nM in test [2] (setting [3]).

Take `COc1ccc(C(=O)Cc2c(Cl)cncc2Cl)c2c1OC1(CCS(=O)(=O)CC1)O2` [Compound 112, 2-(3,5-Dichloropyridine-4-yl)-1-(7-methoxy-2′,3′,5′,6′-tetrahydro-spiro[1,3-benzodioxole-2,4′-(4H)-thiopyran-1,1′-dioxide]-4-yl)ethanone]: the IC50 in test [1] worked out at 34 nM; in test [2] (setting [3]), 29 nM.
